pIC50: −log10 of the molar value. Read-outs that look alike come from different tables or passages of the source. Starred links: 1 amine or outer side, 2 acyl side, 3 side chain; linkers in the order of their positions; H or OH if unused. Positions of bridges follow the written chain, without caps; N, C: chain ends. Non-standard residues stand in square brackets, D forms with d. Residues, ends and D or L forms follow the SMILES beside them. ξ: configuration not given here. *: point of attachment. X17 = O=C([C@@H]1C[C@@H](c2nn[nH]n2)CN1[*:1])[*:2]; Phe(3-CF3) = N[C@@H](Cc1cccc(C(F)(F)F)c1)C(=O)O; Tyr(3-I) = N[C@@H](Cc1ccc(O)c(I)c1)C(=O)O; X1 = C[C@@H]1C[C@H](C(=O)[*:2])N([*:1])C1; Phe(4-Cl) = N[C@@H](Cc1ccc(Cl)cc1)C(=O)O; Pro(4S-NH2) = N[C@@H]1CN[C@H](C(=O)O)C1; Bta = N[C@@H](Cc1csc2ccccc12)C(=O)O; Hyp = O=C(O)[C@@H]1C[C@@H](O)CN1; NMeF = CN[C@@H](Cc1ccccc1)C(=O)O; NMeNle = CCCC[C@H](NC)C(=O)O; NMeS = CN[C@@H](CO)C(=O)O; NMeA = CN[C@@H](C)C(=O)O; Dab = NCC[C@H](N)C(=O)O; Dap = NC[C@H](N)C(=O)O; Bn = c1ccc(C*)cc1; ξC = NC(CS)C(=O)O; Sar = CNCC(=O)O
Assays:
[1] = molecular target: T1, Human PD-L1/PD-1 (Homo sapiens, UniProt Q9NZQ7); experiment: HTRF PD-1-Ig/PD-L1-His binding assay (human PD-L1); conditions: cluster symbol; read-out: HTRF IC50 cluster
T1 construct: made in house; host or cells: HEK293T
T1 sequence (Q9NZQ7 with tags, fused parts or gaps): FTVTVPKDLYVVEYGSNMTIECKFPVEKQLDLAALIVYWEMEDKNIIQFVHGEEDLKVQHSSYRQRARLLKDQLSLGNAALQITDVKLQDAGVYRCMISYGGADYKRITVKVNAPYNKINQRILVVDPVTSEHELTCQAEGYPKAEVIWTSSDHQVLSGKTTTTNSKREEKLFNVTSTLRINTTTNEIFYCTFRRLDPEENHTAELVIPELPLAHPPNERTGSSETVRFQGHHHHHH
Procedure, shortened: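 The time-resolved fluorescence signal comes from Eu-cryptate anti-Ig (1 nM) and APC anti-His (20 nM) antibodies bound to a PD-1-Ig/PD-L1-His complex. Both partners lack transmembrane regions.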

[2] = molecular target: T2, LK35.2-hPD-L1 cells / PE-labeled PD-1-Ig (Homo sapiens, UniProt Q9NZQ7); experiment: LK35.2-hPD-L1 cell binding high-content screening assay; type: cell-based; conditions: cluster symbol, read-out: CBA IC50 cluster
T2 construct: expressed in transfected cells; host or cells: LK35.2 mouse B cell line
T2 sequence (Q9NZQ7 19-290): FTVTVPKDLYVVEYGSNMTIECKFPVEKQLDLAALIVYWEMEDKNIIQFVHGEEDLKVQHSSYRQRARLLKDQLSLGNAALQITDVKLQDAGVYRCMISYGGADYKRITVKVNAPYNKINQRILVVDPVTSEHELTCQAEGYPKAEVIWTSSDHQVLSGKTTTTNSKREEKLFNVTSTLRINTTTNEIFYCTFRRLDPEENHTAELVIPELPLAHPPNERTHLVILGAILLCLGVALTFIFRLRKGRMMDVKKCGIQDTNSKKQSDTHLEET
Procedure, shortened: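 Mouse LK35.2 B cells stably over-expressing human PD-L1, cultured overnight, treated with compound plus PE-labeled human PD-1-Ig (1 nM final) in RPMI/10% FCS for 1 h at 37 °C. After washing, bound fluorescence quantified by high-content imaging.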

[3] = cell binding assay, cell line not given
[4] = cell line of CBA not given (LK35.2-hPD-L1 or 293T-hPD-L1)

Structure (SMILES)	pIC50 [1]	pIC50 [2, 3]	pIC50 [2, 4]
CC(C)C[C@@H]1NC(=O)[C@H](Cc2cnc[nH]2)NC(=O)[C@@H]2CCCN2C(=O)[C@H](CC(N)=O)NC(=O)[C@H](C)N(C)C(=O)[C@H](Cc2ccccc2)NC(=O)CSC[C@@H](C(=O)NCC(N)=O)NC(=O)[C@H](CCCNC(=N)N)NC(=O)[C@H](C)N(C)C(=O)[C@H](COCc2ccccc2)N(C)C(=O)[C@H](Cc2c[nH]c3ccccc23)NC(=O)[C@H](CO)NC(=O)[C@H](Cc2c[nH]c3ccccc23)NC(=O)CN(C)C1=O [Example 6012] ({CH2CO}-F[NMeA]NPHL[Sar]WSW[NMeS](Bn)[NMeA]RCG-NH2; thioether N-14)	7.52 to 8.17	7.14 to 8.32	–
CCCC[C@H]1C(=O)N(C)CC(=O)N[C@@H](CC(=O)O)C(=O)N[C@@H](C(C)C)C(=O)N(C)[C@@H](Cc2ccccc2)C(=O)N[C@@H](Cc2ccc(O)c(I)c2)C(=O)N(C)CC(=O)N[C@@H](Cc2c[nH]c3ccccc23)C(=O)N[C@@H](Cc2ccc(O)cc2)C(=O)N[C@@H](CC(C)C)C(=O)N[C@H](C(=O)NCC(N)=O)CSCC(=O)N[C@@H](Cc2ccccc2)C(=O)N(C)[C@@H](Cc2ccccc2)C(=O)N1C [Example 3111] ({CH2CO}-F[NMeF][NMeNle][Sar]DV[NMeF][Tyr(3-I)][Sar]WYLCG-NH2; thioether N-13)	< 7.52	–	7.14 to 8.32
CCCC[C@H]1C(=O)N(C)[C@@H](CCCC)C(=O)N[C@@H](CCN)C(=O)N[C@H](C(=O)NCC(N)=O)CSCC(=O)N[C@@H](Cc2ccc(O)cc2)C(=O)N(C)[C@@H](C)C(=O)N[C@@H](CC(N)=O)C(=O)N2CCC[C@H]2C(=O)N[C@@H](Cc2c[nH]cn2)C(=O)N[C@@H](CCC(=O)O)C(=O)N2C[C@H](c3nn[nH]n3)C[C@H]2C(=O)N[C@@H](Cc2c[nH]c3ccccc23)C(=O)N[C@@H](CCN)C(=O)N[C@@H](Cc2c[nH]c3ccccc23)C(=O)N1C [Example 13004] ({CH2CO}-Y[NMeA]NPHE[X17]W[Dab]W[NMeNle][NMeNle][Dab]CG-NH2; thioether N-14)	8.17 to 9.41	8.33 to 9.80	–
CCCC[C@H]1C(=O)N(C)CC(=O)N[C@@H](CC(=O)O)C(=O)N[C@@H](C(C)C)C(=O)N(C)[C@@H](Cc2ccccc2)C(=O)N[C@@H](Cc2ccc(O)cc2)C(=O)N(C)CC(=O)N[C@@H](Cc2c[nH]c3ccccc23)C(=O)N[C@@H](Cc2ccc(Cl)cc2)C(=O)N[C@@H](CC(C)C)C(=O)N[C@H](C(=O)NCC(N)=O)CSCC(=O)N[C@@H](Cc2ccccc2)C(=O)N(C)[C@@H](Cc2ccccc2)C(=O)N1C [Example 3099] ({CH2CO}-F[NMeF][NMeNle][Sar]DV[NMeF]Y[Sar]W[Phe(4-Cl)]LCG-NH2; thioether N-13)	< 7.52	–	< 7.13
CCCC[C@H]1C(=O)N(C)CC(=O)N[C@@H](CC(=O)O)C(=O)N[C@@H](C(C)C)C(=O)N(C)[C@@H](Cc2cnc[nH]2)C(=O)N[C@@H](Cc2ccc(O)cc2)C(=O)N(C)CC(=O)N[C@@H](Cc2c[nH]c3ccccc23)C(=O)N[C@@H](Cc2ccc(O)cc2)C(=O)N[C@@H](CC(C)C)C(=O)N[C@H](C(=O)NCC(N)=O)CSCC(=O)N[C@@H](Cc2ccccc2)C(=O)N(C)[C@@H](Cc2cnc[nH]2)C(=O)N1C [Example 3058-A] (HELM PEPTIDE1{[O=C(C[*:3])[*:2]].F.[meH].[CCCC[C@@H](C(=O)[*:2])N(C)[*:1]].[Sar].D.V.[meH].Y.[Sar].W.Y.L.C.G.[am]}$PEPTIDE1,PEPTIDE1,1:R3-14:R3$$$V2.0)	< 7.52	–	< 7.13
CCCC[C@H]1C(=O)N(C)[C@@H](CCCC)C(=O)N[C@@H](CCCNC(=N)N)C(=O)N[C@H](C(=O)NCC(N)=O)CSCC(=O)N[C@@H](Cc2ccc(O)cc2)C(=O)N(C)[C@@H](C)C(=O)N[C@@H](CC(N)=O)C(=O)N2CCC[C@H]2C(=O)N[C@@H](Cc2cnc[nH]2)C(=O)N[C@@H](CC(C)C)C(=O)N2C[C@@H](N)C[C@H]2C(=O)N[C@@H](Cc2c[nH]c3ccccc23)C(=O)N[C@@H](CO)C(=O)N[C@@H](Cc2csc3ccccc23)C(=O)N1C [Example 1037] ({CH2CO}-Y[NMeA]NPHL[Pro(4S-NH2)]WS[Bta][NMeNle][NMeNle]RCG-NH2; thioether N-14)	7.52 to 8.17	–	8.33 to 9.80
CCCC[C@H]1C(=O)N(C)[C@@H](CCCC)C(=O)N[C@@H](CC(C)C)C(=O)N[C@H](C(=O)NCC(N)=O)CSCC(=O)N[C@@H](Cc2ccc(O)cc2)C(=O)N(C)[C@@H](C)C(=O)N[C@@H](CC(=O)O)C(=O)N2CCC[C@H]2C(=O)N[C@@H](Cc2c[nH]cn2)C(=O)N[C@@H](CCCCN)C(=O)N2C[C@H](O)C[C@H]2C(=O)N[C@@H](Cc2c[nH]c3ccccc23)C(=O)N[C@@H](CCCCN)C(=O)N[C@@H](Cc2c[nH]c3ccccc23)C(=O)N1C [Example 5095] ({CH2CO}-Y[NMeA]DPHK[Hyp]WKW[NMeNle][NMeNle]LCG-NH2; thioether N-14)	8.17 to 9.41	8.33 to 9.80	–
CCCC[C@H]1C(=O)N(C)[C@@H](CCCC)C(=O)N[C@@H](C)C(=O)N[C@H](C(=O)NCC(=O)O)CSCC(=O)N[C@@H](Cc2ccc(O)cc2)C(=O)N(C)[C@@H](C)C(=O)N[C@@H](CC(N)=O)C(=O)N2CCC[C@H]2C(=O)N[C@@H](Cc2cnc[nH]2)C(=O)N[C@@H](CC(C)C)C(=O)N[C@@H](CCCCN)C(=O)N[C@@H](Cc2c[nH]c3ccccc23)C(=O)N[C@@H](CO)C(=O)N[C@@H](Cc2c[nH]c3ccccc23)C(=O)N1C [Example 1238]	7.52 to 8.17	–	7.14 to 8.32
CCCC[C@H]1C(=O)N(C)[C@@H](CCCC)C(=O)N[C@@H](CCCNC(=N)N)C(=O)NC(C(=O)N[C@@H](CO)C(N)=O)CSCC(=O)N[C@@H](Cc2ccc(O)cc2)C(=O)N(C)[C@@H](C)C(=O)N[C@@H](CC(N)=O)C(=O)N2CCC[C@H]2C(=O)N[C@@H](Cc2cnc[nH]2)C(=O)N[C@@H](CO)C(=O)N2CCC[C@H]2C(=O)N[C@@H](Cc2c[nH]c3ccccc23)C(=O)N[C@@H](CO)C(=O)N[C@@H](Cc2c[nH]c3ccccc23)C(=O)N1C (stereo partly shown) [Example 9077] ({CH2CO}-Y[NMeA]NPHSPWSW[NMeNle][NMeNle]R[ξC]S-NH2; thioether N-14)	7.52 to 8.17	7.14 to 8.32	–
CCCC[C@H]1C(=O)N(C)CC(=O)N[C@@H](CC(=O)O)C(=O)N[C@@H](C(C)C)C(=O)N(C)[C@@H](Cc2ccccc2)C(=O)N[C@@H](Cc2ccc(O)cc2)C(=O)N2C[C@H](C)C[C@@H]2C(=O)N[C@@H](Cc2c[nH]c3ccccc23)C(=O)N[C@@H](Cc2ccc(O)cc2)C(=O)N[C@@H](CC(C)C)C(=O)N[C@H](C(=O)NCC(N)=O)CSCC(=O)N[C@@H](Cc2ccccc2)C(=O)N(C)[C@@H](Cc2ccccc2)C(=O)N1C [Example 3578] ({CH2CO}-F[NMeF][NMeNle][Sar]DV[NMeF]Y[X1]WYLCG-NH2; thioether N-13)	8.17 to 9.41	8.33 to 9.80	–
CCCC[C@H]1C(=O)N(C)[C@@H](CCCC)C(=O)N[C@@H](CCCNC(=N)N)C(=O)N[C@H](C(=O)NCC(N)=O)CSCC(=O)N[C@@H](Cc2cccc(C(F)(F)F)c2)C(=O)N(C)[C@@H](C)C(=O)N[C@@H](CC(N)=O)C(=O)N2CCC[C@H]2C(=O)N[C@@H](Cc2cnc[nH]2)C(=O)N[C@@H](CC(C)C)C(=O)N2C[C@H](O)C[C@H]2C(=O)N[C@@H](Cc2c[nH]c3ccccc23)C(=O)N[C@@H](CO)C(=O)N[C@@H](Cc2c[nH]c3ccccc23)C(=O)N1C [Example 7056] ({CH2CO}-[Phe(3-CF3)][NMeA]NPHL[Hyp]WSW[NMeNle][NMeNle]RCG-NH2; thioether N-14)	7.52 to 8.17	< 7.13	–
CCCC[C@H]1C(=O)N(C)[C@@H](CCCC)C(=O)N[C@@H](CCCNC(=N)N)C(=O)N[C@H](C(=O)NCC(N)=O)CSCC(=O)N[C@@H](Cc2ccc(O)cc2)C(=O)N(C)[C@@H](C)C(=O)N[C@@H](CC(N)=O)C(=O)N2CCC[C@H]2C(=O)N[C@@H](CN)C(=O)N[C@@H](CC(C)C)C(=O)N2C[C@H](O)C[C@H]2C(=O)N[C@@H](Cc2c[nH]c3ccccc23)C(=O)N[C@@H](C(C)C)C(=O)N[C@@H](Cc2c[nH]c3ccccc23)C(=O)N1C [Example 6032] ({CH2CO}-Y[NMeA]NP[Dap]L[Hyp]WVW[NMeNle][NMeNle]RCG-NH2; thioether N-14)	8.17 to 9.41	8.33 to 9.80	–
CCCC[C@H]1C(=O)N(C)CC(=O)N[C@@H](CCCNC(=N)N)C(=O)N[C@@H](C(C)C)C(=O)N(C)[C@@H](Cc2ccccc2)C(=O)N[C@@H](Cc2ccc(O)cc2)C(=O)N(C)CC(=O)N[C@@H](Cc2c[nH]c3ccccc23)C(=O)N[C@@H](Cc2ccc(O)cc2)C(=O)N[C@@H](CC(C)C)C(=O)N[C@H](C(=O)NCC(N)=O)CSCC(=O)N[C@@H](Cc2ccccc2)C(=O)N(C)[C@@H](Cc2ccccc2)C(=O)N1C [Example 3501] (HELM PEPTIDE1{[O=C(C[*:3])[*:2]].F.[meF].[CCCC[C@@H](C(=O)[*:2])N(C)[*:1]].[Sar].R.V.[meF].Y.[Sar].W.Y.L.C.G.[am]}$PEPTIDE1,PEPTIDE1,1:R3-14:R3$$$V2.0)	7.52 to 8.17	7.14 to 8.32	–
CCCC[C@H]1C(=O)N(C)[C@@H](CCCC)C(=O)N[C@@H](CCCNC(=N)N)C(=O)N[C@H](C(=O)NCC(N)=O)CSCC(=O)N[C@@H](Cc2ccccc2)C(=O)N(C)[C@@H](C)C(=O)N[C@@H](CC(N)=O)C(=O)N2CCC[C@H]2C(=O)N[C@@H](Cc2cnc[nH]2)C(=O)N[C@@H](CC(C)C)C(=O)N(C)CC(=O)N[C@@H](Cc2c[nH]c3ccccc23)C(=O)N[C@H](C)C(=O)N[C@@H](Cc2c[nH]c3ccccc23)C(=O)N1C [Example 1061] ({CH2CO}-F[NMeA]NPHL[Sar]W[dA]W[NMeNle][NMeNle]RCG-NH2; thioether N-14)	< 7.52	–	< 7.13

Reference: US9850283B2, “Macrocyclic inhibitors of the PD-1/PD-L1 and CD80(B7-1)/PD-L1 protein/protein interactions” (BRISTOL-MYERS SQUIBB COMPANY, priority 2013, dated 2017)
